Data published in patent US6620593B1, “Method for safety evaluation of chemical compound using recombinant yeast expressing human cytochrome P450” (Sumitomo Chemical Company, Limited, priority 1993, dated 2003).
Read-outs that look alike come from different tables or passages of the source.

Legend:
[1] = system: human cytochrome P450 3A4; assay: Ames test using yeast S-9 Mix fraction and microsomal fraction, human P450 3A4 as metabolic activation source; format: cell-based
Description: (§1) The toxic effects, in particular mutagenicity, of the resulting metabolites can be determined by a conventional biological analytic method such as the Ames Test. For example, the metabolites present in the reaction solution are allowed to react with mutant bacteria such as histidine requiring Salmonella strain (Salmonella typhimurium (his−)), or tryptophan requiring Escherichia coil (Escherichia coil (trp−)), and then determine whether the metabolites cause the back mutation of the bacteria whether the colonies of revertant which is not requiring the amino acid (His+ or Trp+) are formed, and, if formed, how many colonies. In place of the bacteria, mammalian cells such as MCL-5 cells, which are sensitive to cell toxicity of a chemical compound (U.S. Pat. No. 4,532,204), can be used.
(§2) The Ames test method was in accordance with the customary method described, for example, in Mutat. Res., (1975) 31, 347. 2-Aminoanthrathene which is an arylamine type compound was used as a specimen compound. […]

[2] = system: human cytochrome P450 2A6; assay: Ames test using yeast S-9 Mix fraction and microsomal fraction, human P450 2A6 as metabolic activation source; format: cell-based
Description: as §1, §2

[3] = target: T1, human P450 1A2 (Homo sapiens, UniProt P05177); assay: Ames test using yeast S-9 Mix fraction and microsomal fraction, human P450 1A2 as metabolic activation source; format: cell-based; set-up: made in house; host or cells: Saccharomyces cerevisiae AH22 (whole transformed cells, S-9 Mix or microsomal fractions)
T1 sequence (P05177 1-516): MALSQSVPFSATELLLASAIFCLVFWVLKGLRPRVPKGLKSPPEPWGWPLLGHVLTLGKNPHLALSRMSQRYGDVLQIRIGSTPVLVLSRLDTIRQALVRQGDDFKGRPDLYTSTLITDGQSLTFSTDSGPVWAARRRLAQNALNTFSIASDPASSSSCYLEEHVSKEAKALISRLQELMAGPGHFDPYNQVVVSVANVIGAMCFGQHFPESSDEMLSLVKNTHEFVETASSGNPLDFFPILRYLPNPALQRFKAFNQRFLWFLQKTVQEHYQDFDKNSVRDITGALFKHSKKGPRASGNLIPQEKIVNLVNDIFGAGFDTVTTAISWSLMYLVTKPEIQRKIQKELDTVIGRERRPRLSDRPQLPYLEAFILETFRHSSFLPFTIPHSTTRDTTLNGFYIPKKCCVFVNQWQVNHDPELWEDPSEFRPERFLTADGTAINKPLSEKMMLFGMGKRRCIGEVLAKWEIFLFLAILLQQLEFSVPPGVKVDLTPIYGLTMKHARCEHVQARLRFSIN
Description: as §1
(§3) The Ames test method was in accordance with the customary method described, for example, in Mutat. Res., (1975) 31, 347. 2-Aminoanthrathene which is an arylamine type compound was used as a specimen compound. (1) Rat S-9 Mix supernatant fraction (obtained by homogenizing liver and then subjected to centrifugation (9000×g, 10 min), manufactured by Kikkoman) containing each kind of rat P450 molecular species at the concentration of 1200 pmol per 1 sample and (2) Yeast S-9 Mix fraction obtained from each kind of yeast cells expressing human P450 or a microsomal fraction prepared from the yeast S-9 Mix fraction were used as a metabolic activation source in the Ames test.

[4] = target: T2, human P450 2E1 (Homo sapiens, UniProt P05181); assay: Ames test using yeast S-9 Mix fraction and microsomal fraction, human P450 2E1 as metabolic activation source; format: cell-based
T2 sequence (P05181 whole entry): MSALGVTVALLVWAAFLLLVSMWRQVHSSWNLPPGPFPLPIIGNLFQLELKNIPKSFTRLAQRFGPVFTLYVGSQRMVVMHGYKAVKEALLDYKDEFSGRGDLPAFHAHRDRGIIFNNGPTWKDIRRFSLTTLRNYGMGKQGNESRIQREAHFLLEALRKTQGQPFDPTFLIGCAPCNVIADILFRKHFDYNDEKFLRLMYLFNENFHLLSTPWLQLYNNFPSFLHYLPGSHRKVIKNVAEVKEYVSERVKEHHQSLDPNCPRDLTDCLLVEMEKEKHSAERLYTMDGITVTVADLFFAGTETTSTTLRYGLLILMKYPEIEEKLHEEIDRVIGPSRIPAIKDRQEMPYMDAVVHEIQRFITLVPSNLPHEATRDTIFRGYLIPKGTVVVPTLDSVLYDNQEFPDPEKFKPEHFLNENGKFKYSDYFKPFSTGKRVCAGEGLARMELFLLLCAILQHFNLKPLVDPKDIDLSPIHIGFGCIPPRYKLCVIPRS
Description: as §1, §3

[5] = target: T3, human cytochrome P450 2C8 (Homo sapiens, UniProt P10632); assay: Ames test using yeast S-9 Mix fraction and microsomal fraction, human P450 2C8 as metabolic activation source; format: cell-based
T3 construct: The entire protein coding region of the P450 2C8 gene was amplified by the PCR method; made in house; host or cells: Saccharomyces cerevisiae AH22 (whole transformed cells, S-9 Mix or microsomal fractions)
T3 sequence (P10632 1-490): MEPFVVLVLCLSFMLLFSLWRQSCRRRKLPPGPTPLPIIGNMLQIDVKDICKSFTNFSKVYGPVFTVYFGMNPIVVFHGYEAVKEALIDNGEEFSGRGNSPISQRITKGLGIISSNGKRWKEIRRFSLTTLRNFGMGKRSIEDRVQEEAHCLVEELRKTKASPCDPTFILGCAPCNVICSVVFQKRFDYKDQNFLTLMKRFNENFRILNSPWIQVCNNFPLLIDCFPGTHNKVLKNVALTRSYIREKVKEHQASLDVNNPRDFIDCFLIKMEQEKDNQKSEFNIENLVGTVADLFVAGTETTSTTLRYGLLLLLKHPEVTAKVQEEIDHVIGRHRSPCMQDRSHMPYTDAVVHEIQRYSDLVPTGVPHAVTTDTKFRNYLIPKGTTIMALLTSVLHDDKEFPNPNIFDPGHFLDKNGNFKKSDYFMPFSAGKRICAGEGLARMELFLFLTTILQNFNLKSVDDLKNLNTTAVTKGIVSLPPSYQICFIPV
Description: as §1, §2

[6] = target: T2, human P450 2E1; assay: Metabolism (hydroxylation) of substrates using transformed yeast cells or microsomal fractions expressing human P450 2E1; conditions: microsomes
Experimental: (§4) Then 2 ml of dichloromethane was added.

[7] = target: T4, human P450 1A1 (Homo sapiens, UniProt P04798); conditions: microsomes
T4 sequence (P04798 1-512): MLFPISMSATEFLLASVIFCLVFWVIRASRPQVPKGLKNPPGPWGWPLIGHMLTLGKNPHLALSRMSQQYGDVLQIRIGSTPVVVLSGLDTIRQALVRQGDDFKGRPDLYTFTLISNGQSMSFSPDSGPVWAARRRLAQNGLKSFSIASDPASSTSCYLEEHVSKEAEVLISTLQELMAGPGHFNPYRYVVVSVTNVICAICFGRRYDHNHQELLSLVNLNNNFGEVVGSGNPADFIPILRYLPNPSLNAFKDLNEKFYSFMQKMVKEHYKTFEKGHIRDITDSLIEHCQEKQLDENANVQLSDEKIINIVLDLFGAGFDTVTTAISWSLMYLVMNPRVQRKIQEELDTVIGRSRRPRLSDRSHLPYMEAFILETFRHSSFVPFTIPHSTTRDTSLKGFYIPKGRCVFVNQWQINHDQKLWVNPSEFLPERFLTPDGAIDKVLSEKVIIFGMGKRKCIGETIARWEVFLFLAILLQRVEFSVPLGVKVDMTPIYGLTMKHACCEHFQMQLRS
Experimental: (§5) To the supernatant, 2 ml of dichloromethane was added. After sufficient stirring, the dichloromethane layer was recovered by centrifugation (5000×g, 10 min), and the solvent was evaporated under reduced pressure. The resultant residue was dissolved in 100 μl of acetonitrile, and the solution was analyzed by HPLC under the following conditions.
(§6) Then 2 ml of dichloromethane was added. After sufficient stirring, the solution was centrifuged again (5000×g, 10 min). The dichloromethane layer was recovered from the separated layer and the solvent was evaporated under reduced pressure. The resultant residue was dissolved in 100 μl of acetonitrile, and the solution was analyzed by HPLC under the following conditions.
Then 2 ml of dichloromethane was added to the supernatant and vigorously stirred and centrifuged (5000×g, 10 min). The dichloromethane layer was recovered from the separated layer, then evaporated under reduced pressure. The obtained residue was dissolved in 100 μl of acetonitrile, and the solution was analyzed by HPLC under the following conditions.
Then 2 ml of dichloromethane was added to the solution, and the solution was stirred vigorously and centrifuged (15,000×g, 5 min). The dichloromethane layer was recovered, and the solvent was removed under reduced pressure. The obtained residue was dissolved in 100 μl of acetonitrile and the solution was subjected to analysis by HPLC under the same conditions as above.
Then the solution was centrifuged (5000×g, 10 min) to give a supernatant. The obtained supernatant solution was subjected to the HPLC analysis under the following conditions.
(§7) Then the solution was centrifuged (5000×g, 10 min) to give a supernatant. 62.5 μl of 15% trichloroacetic acid and 2 ml of chloroform were added to the obtained supernatant solution, and the resultant solution was stirred well. The chloroform layer was recovered from the separated layer. Then 4 ml of sodium hydroxide solution containing 0.1 M NaCl was added to the solution and centrifuged again (5000×g, 10 min).
Then perchlorate was added to the solution, so that the final concentration of the perchlorate was 10% (v/v). The solution was sufficiently stirred and centrifuged (15,000×g, 15 min) to give the supernatant. The obtained supernatant was subjected to HPLC analysis according to the following conditions.
Then the solution was diluted with equal volume of methanol, sufficiently stirred and centrifuged (15,000×g, 5 min) to give the supernatant. The obtained supernatant was subjected to HPLC analysis according to the following conditions.

[8] = system: human P450 2D6; assay: Metabolism (hydroxylation) of substrates using transformed yeast cells or microsomal fractions expressing human P450 2D6; conditions: microsomes
Experimental: as §4

[9] = target: human P450 2C19 (Homo sapiens, UniProt P33261); assay: Metabolism (hydroxylation) of substrates using transformed yeast cells or microsomal fractions expressing human P450 2C19; conditions: microsomes
human P450 2C19, sequence (P33261 whole entry): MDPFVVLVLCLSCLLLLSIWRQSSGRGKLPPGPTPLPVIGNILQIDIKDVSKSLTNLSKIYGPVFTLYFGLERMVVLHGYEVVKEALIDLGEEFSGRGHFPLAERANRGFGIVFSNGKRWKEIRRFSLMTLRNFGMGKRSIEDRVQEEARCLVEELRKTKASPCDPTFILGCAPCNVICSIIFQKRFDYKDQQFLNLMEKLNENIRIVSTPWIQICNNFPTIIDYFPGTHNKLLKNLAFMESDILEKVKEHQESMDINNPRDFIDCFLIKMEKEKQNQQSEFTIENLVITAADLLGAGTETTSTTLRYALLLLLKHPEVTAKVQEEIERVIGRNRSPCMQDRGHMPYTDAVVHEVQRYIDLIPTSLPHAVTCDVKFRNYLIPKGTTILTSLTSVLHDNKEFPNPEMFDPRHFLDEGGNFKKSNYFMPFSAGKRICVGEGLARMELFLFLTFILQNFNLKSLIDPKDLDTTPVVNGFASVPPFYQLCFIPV
Experimental: as §4

[10] = target: T1, human P450 1A2; assay: Metabolism (hydroxylation) of substrates using transformed yeast cells or their microsomal fractions expressing human P450 1A2 and yeast NADPH-P450 reductase; conditions: microsomes
Experimental: as §4

[11] = target: T5, human P450 2C18 (Homo sapiens, UniProt P33260); assay: Metabolism (hydroxylation) of substrates using transformed yeast cells or microsomal fractions expressing human P450 2C18; conditions: microsomes
T5 sequence (P33260 26-490): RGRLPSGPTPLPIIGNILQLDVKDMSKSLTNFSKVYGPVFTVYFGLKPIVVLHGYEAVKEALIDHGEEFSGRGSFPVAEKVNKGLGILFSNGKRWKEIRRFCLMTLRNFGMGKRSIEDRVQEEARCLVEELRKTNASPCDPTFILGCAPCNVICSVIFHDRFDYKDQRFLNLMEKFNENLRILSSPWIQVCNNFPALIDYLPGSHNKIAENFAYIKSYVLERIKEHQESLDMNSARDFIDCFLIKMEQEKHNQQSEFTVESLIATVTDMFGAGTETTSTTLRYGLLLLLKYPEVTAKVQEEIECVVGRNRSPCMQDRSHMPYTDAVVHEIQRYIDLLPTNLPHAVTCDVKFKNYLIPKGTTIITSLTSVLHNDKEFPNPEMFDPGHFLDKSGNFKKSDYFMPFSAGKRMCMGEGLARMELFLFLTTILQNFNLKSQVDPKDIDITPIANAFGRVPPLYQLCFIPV
Experimental: as §4

[12] = target: T6, human P450 2B6 (Homo sapiens, UniProt P20813); assay: Metabolism (hydroxylation) of substrates using transformed yeast cells or microsomal fractions expressing human P450 2B6; conditions: microsomes
T6 sequence (P20813 1-491): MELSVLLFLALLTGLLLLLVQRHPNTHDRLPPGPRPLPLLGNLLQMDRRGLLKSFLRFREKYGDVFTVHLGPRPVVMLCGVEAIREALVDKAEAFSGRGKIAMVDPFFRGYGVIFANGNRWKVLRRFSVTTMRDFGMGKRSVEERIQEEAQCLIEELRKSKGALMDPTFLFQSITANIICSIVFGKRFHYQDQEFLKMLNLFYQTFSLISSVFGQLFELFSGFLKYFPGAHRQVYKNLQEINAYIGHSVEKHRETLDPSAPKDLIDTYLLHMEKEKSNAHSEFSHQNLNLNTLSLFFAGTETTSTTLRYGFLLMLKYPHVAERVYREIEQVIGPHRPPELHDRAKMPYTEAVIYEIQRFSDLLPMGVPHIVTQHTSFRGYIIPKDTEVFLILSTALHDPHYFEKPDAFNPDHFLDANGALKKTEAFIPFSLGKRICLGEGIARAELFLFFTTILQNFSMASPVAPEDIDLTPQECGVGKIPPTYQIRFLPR
Experimental: as §4

[13] = system: human P450 2C8; assay: Metabolism (hydroxylation) of substrates using transformed yeast cells or microsomal fractions expressing human P450 2C8; conditions: microsomes
Experimental: as §4

[14] = system: human P450 2A6; assay: Metabolism (hydroxylation) of substrates using transformed yeast cells or microsomal fractions expressing human P450 2A6; conditions: microsomes
Experimental: as §4

[15] = system: other human P450 molecular species
Experimental: as §5, §6, §7
Then perchlorate was added to the solution, so that the final concentration of the perchlorate was 10% (v/v). The solution was sufficiently stirred and centrifuged (15,000×g, 15 min) to give the supernatant. […]

[16] = system: human P450 3A4; assay: Metabolism (hydroxylation) of substrates using transformed yeast cells or microsomal fractions expressing human P450 3A4; conditions: microsomes
Experimental: as §4

[17] = target: human P450 2C9 (Homo sapiens, UniProt P11712); assay: Metabolism (hydroxylation) of substrates using transformed yeast cells or microsomal fractions expressing human P450 2C9; conditions: microsomes
human P450 2C9, sequence (P11712 whole entry): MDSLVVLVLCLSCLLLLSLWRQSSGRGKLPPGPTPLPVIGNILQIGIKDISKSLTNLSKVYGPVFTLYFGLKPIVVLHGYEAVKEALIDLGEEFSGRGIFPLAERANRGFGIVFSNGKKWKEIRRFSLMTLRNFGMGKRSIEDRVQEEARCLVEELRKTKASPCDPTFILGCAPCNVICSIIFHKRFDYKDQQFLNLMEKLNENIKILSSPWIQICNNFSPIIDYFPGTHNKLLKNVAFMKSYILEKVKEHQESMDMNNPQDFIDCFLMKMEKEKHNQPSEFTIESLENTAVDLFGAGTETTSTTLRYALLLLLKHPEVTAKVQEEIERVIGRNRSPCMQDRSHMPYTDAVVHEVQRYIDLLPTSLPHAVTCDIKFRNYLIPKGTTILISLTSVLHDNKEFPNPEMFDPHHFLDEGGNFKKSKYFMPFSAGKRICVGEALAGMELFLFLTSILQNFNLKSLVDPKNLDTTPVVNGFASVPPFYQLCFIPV
Experimental: as §4

[18] = Table 1 hydroxylation activity, metabolic activation in Ames test
[19] = compound at 1 μg/plate (90 mm dia.), yeast S-9 Mix fraction and microsomal fraction

Nc1ccc2cc3ccccc3cc2c1 [2-Aminoanthracene]
Ames test revertant colonies in words, human cytochrome P450 3A4 [1]: not found
Activity in Table 1 for 2-aminoanthracene (Ames test), human P450 3A4 [1, 18]: −
Ames test revertant colonies in words, human cytochrome P450 2A6 [2]: not found
Activity in Table 1 for 2-aminoanthracene (Ames test), human P450 2A6 [2, 18]: −
Ames test activity in words, human cytochrome P450 1A2 [3]: high activity
Concentration at which mutagenicity can be detected ([3]; 20 pmol of P450 1A2 used): about 0.1 μg
Activity in Table 1 for 2-aminoanthracene (Ames test), human P450 1A2 [3, 18]: + + +
Revertant colonies detected, yeast expressing human P450 1A2 (AH22/p1A2R) [3, 19]: more than 1000 revertant colonies
Ames test activity in words, human P450 2E1 [4]: moderate activity
Activity in Table 1 for 2-aminoanthracene (Ames test), human P450 2E1 [4, 18]: + +
Revertant colonies detected, yeast expressing human P450 2E1 (AH22/p2E1R) [4, 19]: more than 1000 revertant colonies
Ames test revertant colonies in words, human cytochrome P450 2C8 [5]: not found
Activity in Table 1 for 2-aminoanthracene (Ames test), human P450 2C8 [5, 18]: −

CCCCNC(=O)NS(=O)(=O)c1ccc(C)cc1 [Tolbutamide]
Hydroxylation activity, human P450 2E1 [6]: −
Hydroxylation activity, human P450 1A1 [7]: −
Hydroxylation activity, human P450 2D6 [8]: −
Hydroxylation activity, human P450 2C19 [9]: + +
Hydroxylation activity, human P450 1A2 [10]: −
Hydroxylation activity, human P450 2C18 [11]: +
Hydroxylation activity, human P450 2B6 [12]: −
Hydroxylation activity, human P450 2C8 [13]: +
Hydroxylation activity, human P450 2A6 [14]: −
Hydroxylated metabolite / hydroxylation activity with yeast expressing other human P450 than those named ([15]; microsomes): not detected

CC(=O)Nc1ccccc1 [Acetanilide]
Hydroxylation activity, human P450 2E1 [6]: + +
Hydroxylation activity, human P450 1A1 [7]: + +
Hydroxylation activity, human P450 2D6 [8]: + + +
Hydroxylation activity, human P450 2C19 [9]: + +
Hydroxylation activity, human P450 3A4 [16]: +
Hydroxylation activity, human P450 1A2 [10]: + + +
Hydroxylation activity, human P450 2C18 [11]: + +
Hydroxylation activity, human P450 2B6 [12]: + +
Hydroxylation activity, human P450 2C8 [13]: + +
Hydroxylation activity, human P450 2A6 [14]: + +
Hydroxylation activity, human P450 2C9 [17]: + +

CCOc1ccc2ccc(=O)oc2c1 [7-Ethoxycoumarin]
Hydroxylation activity, human P450 2E1 [6]: + +
Hydroxylation activity, human P450 1A1 [7]: + + +
Hydroxylation activity, human P450 2D6 [8]: + +
Hydroxylation activity, human P450 2C19 [9]: +
Hydroxylation activity, human P450 3A4 [16]: +
Hydroxylation activity, human P450 1A2 [10]: + +
Hydroxylation activity, human P450 2C18 [11]: +
Hydroxylation activity, human P450 2B6 [12]: + + +
Hydroxylation activity, human P450 2C8 [13]: +
Hydroxylation activity, human P450 2A6 [14]: + +
Hydroxylation activity, human P450 2C9 [17]: +

O=c1ccc2ccccc2o1 [Coumarin]
Hydroxylation activity, human P450 2E1 [6]: −
Hydroxylation activity, human P450 1A1 [7]: −
Hydroxylation activity, human P450 2D6 [8]: −
Hydroxylation activity, human P450 2C19 [9]: −
Hydroxylation activity, human P450 3A4 [16]: −
Hydroxylation activity, human P450 1A2 [10]: −
Hydroxylation activity, human P450 2C18 [11]: −
Hydroxylation activity, human P450 2B6 [12]: −
Hydroxylation activity, human P450 2C8 [13]: −
Hydroxylation activity, human P450 2A6 [14]: + + +
Hydroxylated metabolite / hydroxylation activity with yeast expressing other human P450 than those named [15]: no activity
Hydroxylation activity, human P450 2C9 [17]: −
